Laboratory results reported in patent US20230183246A1, “CONTINUOUS FLOW SONOGASHIRA COUPLING SYNTHESIS METHOD” (Purdue Research Foundation, priority 2020, published 2023).
“And” between values parts separate entries of the source, which are not always exact repeats. Equal entries are not always repeated.

Legend:
FLT-3 = settings: cited from earlier work
RET and its mutant forms = settings: compared with reported RET inhibitors; cited from earlier work
solubility in DMF = assay type: physicochemical
Protocol: The reaction set-up used a T-mixer at 20° C. prior to injecting the solution of 4 into the heated glass reactor chip that was held at 80 or 95° C. […] Based on these findings, we sought to modify our strategy for execution of this reaction in flow.

Row | Compound | potency toward inhibition of all FLT-3 forms (FLT-3) | inhibition activity of RET and its mutant forms (RET and its mutant forms) | solubility (solubility in DMF; 20° C. in DMF) | solubility (solubility in DMF; 20° C. in DMF, after recrystallizing twice (EtOH, then EtOAc)) | solubility (solubility in DMF; 55° C. in DMF)
1 | CN1CCN(Cc2ccc(NC(=O)c3cncc(C#Cc4cnc(N)c5ncccc45)c3)cc2C(F)(F)F)CC1 [HSN608, 5-((8-Amino-1,7-naphthyridin-5-yl)ethynyl)-N-(4-((4-methylpiperazin-1-yl)methyl)-3-(trifluoromethyl)phenyl)nicotinamide] | high potency | better than the reported RET inhibitors |  |  | 
2 | Nc1ncc(Br)c2cccnc12 [compound 4, 5-bromo-8-amino-1,7-naphthyridine] |  |  | 14.6 mg/ml and 0.065 M | 0.0785 M and 17.6 mg/ml | 38.1 mg/ml and 0.170 M
